Consider seven compounds from patent publication US6331636A, “Therapeutically useful 2-aminotetralin derivatives” (priority 1992, dated 2001).

One experiment deals with dopamine receptors. The following applies: background; cited from earlier work.
The conditions of experiment [1]: cited from earlier work.
Experiment [2] is described as follows: Hypothermia in mice after subcutaneous injection. It is filed as in vivo. The note with it: Mus musculus, sc, dose depressing body temperature by 2° C. in two of four mice.
Experimental: Starting with a dose of 30 mg/kg, four mice are injected subcutaneously with test compound. Twenty minutes later, the number of animals whose body temperature has decreased by 2° C. or more are counted. […] The time for last statistically significant drug affect on mean body temperature is indicated in minutes. […] Potency is given as mg/kg ED50 (dose required to depress temperature in two of four mice) as measured by Spearman-Karber statistics.
For a further experiment, the system named is 5-HT receptor. The following applies: J. Med. Chem., 30, 2105 (1987); cited from earlier work.
The conditions of experiment [3]: background, cited from earlier work.

The structures appear in SMILES notation. Structures can show the parent of a compound that is named as a salt.

As to `O=C1CC2(CCCC2)CC(=O)N1CCCCN1CCN(c2ncccn2)CC1` [Buspirone], in the experiment on dopamine receptors, the “dopamine receptor activity” value is “antagonizes dopamine receptors at the same dose it stimulates 5-HT1A receptors”.

With `CN1CCc2cccc3c2[C@H]1Cc1ccc(O)c(O)c1-3` [apomorphine], the “dopamine receptor activity” value in the experiment with dopamine receptors was “able to activate the dopamine autoreceptors as well as the post synaptic dopamine receptors”.

On to `COc1cccc2c1CCC(NC1CC1)C2C` (stereo not drawn) [1-methyl-2-(cyclopropylamino)-5-methoxytetralin], for which the “local anesthetic activity” value in experiment [1] (J. Pharm. Sci., 67, 880-82 (1978)) is on record as “local anesthetic activity”.

With `CN(C)C1CCc2ccc(O)cc2C1(C)C` (stereo not drawn) [1,1-Dimethyl-2-(N,N-dimethylamino)-7-hydroxytetralin], in experiment [1] (Chem. Ab., 79: 146294b), the “analgesic and intestinal activity” value was “analgesic and intestinal movement accelerating actions”.

For the compound `C=CCN[C@H]1CCc2cccc(OC)c2[C@H]1CC=C` (relative stereo) [Example 26, Compound 1, Cis-(±)-1,2,3,4-Tetrahydro-8-methoxy-N,1-di-(2-pro-penyl)-2-naphthalenamine Hydrochloride], in experiment [2], the ED50 (in general, the dose at which the effect has come halfway, by size or by number of responders) came out at 2.31 mg/kg.

Turning to `CCCN(CCC)C1CCc2cccc(O)c2C1C` (stereo not drawn) [8-hydroxy-1-methyl-2-(di-n-propylamino)tetralins], the “5-HT receptor agonism” value in the experiment on 5-HT receptor is 5-HT receptor agonists.

Turning to `CC1(C)CC(=O)N(CCCCN2CCN(c3ncccn3)CC2)C(=O)C1` [Gepirone], the “dopamine receptor activity” value in the experiment on dopamine receptors is listed as “also has dopamine antagonist properties”. Further, in experiment [3] (clinical), the “anxiolytic / anti-anxiety activity” value was “clinically demonstrated anti-anxiety activities”. Also, the “effect on depressive endpoints” value in experiment [3] (some patients) is recorded as “ameliorative effects on some depressive endpoints in some patients”.
